Converted amounts (≈) assume the structure as drawn. Where a SMILES comes first, the peptide text is derived from it. Where no end group is shown, it is not given here. [ ]: non-standard residue; d: D form.
Assays:
K. pneumoniae LMG 20218 [1] = experiment: microbe, parasite or virus in culture
Method: (§1) MIC tests were performed in triplicate by liquid growth inhibition microdilution assays in sterile polypropylene microtiter plates according to the Clinical and Laboratory Standards Institute (CLSI) guideline for bacteria that grow aerobically. Briefly, the indicator strains were first streaked on the appropriate agar plate, and then single colonies were picked and incubated overnight in liquid broth. The final inoculum of bacteria was 5*10^5 CFU/mL prepared in CAMHB (cationic adjusted Mueller–Hinton broth, Sigma-Aldrich) or CAMHB plus 5% of lysed horse blood (TCS Biosciences, Buckingham, UK) in the case of S. pneumoniae. The antimicrobials were 2-fold serially diluted and 50 µL diluted bacterial suspension was added to each well to make the final volume 100 µL. The microtiter plates and the count plates were incubated at 37 °C for 16–20 h without shaking. Growth inhibition was assessed by measuring the OD600 using a microplate reader (Tecan Infinity F200). The lowest concentration of the antimicrobials that inhibits visible growth of the indicator strain is identified as the MIC value.
(§2) The condition for the tests and the analysis of the plates were performed as described above for the MIC tests.

P. aeruginosa LMG 6395 [2] = experiment: microbe, parasite or virus in culture
Method: as §1, §2

E. aerogenes LMG 02094 [3] = experiment: microbe, parasite or virus in culture
Method: as §1, §2

A. baumannii LMG 01041 [4] = experiment: microbe, parasite or virus in culture
Method: as §1, §2

E. coli LMG 15862 [5] = experiment: microbe, parasite or virus in culture
Method: as §1, §2

K. pneumoniae LMG 20218 [6] = conditions: LMG 20218
Method: (§3) For the synergy test, standard checkerboard broth microdilution assays were conducted to test the synergistic effect of combined antimicrobials using the same condition as before[51],[56]. […] The initial concentration of both peptides was their individual MIC. 50 µL fresh bacterial suspension prepared as above was added to the wells already containing the antimicrobial compound mixture to achieve 100 µL final volume per well.
(§4) The fractional inhibitory concentration (FIC) indices[57] were calculated using the formula FICI = FICa + FICb = MICac/MICa + MICbc/MICb, to determine whether the combination is additive, synergistic or antagonistic[51],[57]. The MICa and MICb is the MIC of compound A or B alone, respectively. MICac is the MIC of compound A in combination with compound B and MICbc is the MIC of compound B when it was combined with compound A. The FIC corresponds to the MIC of a compound in combination with the other compound, divided by the MIC of the compound alone. FICa is FIC of compound A while FICb is FIC of compound B. The FICI was interpreted according to EUCAST[58] as follows: synergistic, FICI ≤ 0.5; additive,0.5 < FICI ≤ 1; indifferent, 1 < FICI < 2; antagonistic, FICI ≥ 2.
as §2

P. aeruginosa LMG 6395 [7] = tested on: P. aeruginosa LMG 6395
Method: as §3, §4, §2

E. aerogenes LMG 02094 [8] = tested on: E. aerogenes LMG 02094
Method: as §3, §4, §2

A. baumannii LMG 01041 [9] = tested on: A. baumannii LMG 01041
Method: as §3, §4, §2

E. coli LMG 15862 [10] = tested on: E. coli LMG 15862
Method: as §3, §4, §2

[11] = human plasma (EDTA K2), 3.2 mM peptide, 37 °C, 200 rpm, samples at 1, 3, 6 h; read-out halo size in spot-on-lawn against K. pneumoniae LMG 20218; triplicate
Method: For plasma stability, the peptides were lyophilized and resuspended in plasma or PBS (as a control) at a final concentration of 3.2 mM. After that, the peptides were incubated with shaking (200 rpm) during 6 h at 37 °C. At time 1, 3, and 6 h, 10 µL samples were tested against K. pneumoniae LMG 20218 by a spot-on-lawn test. Reduction in the size of the halo was related to the degradation of the peptide. The test was performed in triplicate.

S. pneumoniae R6 = experiment: MIC, broth microdilution; assay type: cell-based; conditions: S. pneumoniae R6 (Gram-positive); compound alone; CAMHB plus 5% lysed horse blood
Method: as §1

[12] = tested on: human red blood cells (hRBCs); experiment: Hemolytic activity; conditions: 1 h
Method: (§5) Hemolytic activity was determined with fresh human red blood cells (hRBCs)[28]. The hRBCs were centrifuged (1000×g, 5 min) and the supernatant was discarded. The pellets were washed three times with PBS and diluted in PBS to make the cell stock solution with a cell density of 2*10^8 cells/mL. […] 1% Triton X-100 and PBS were used as controls. The cells were incubated at 37 °C for 1 h and centrifuged at 2000 rpm for 5 min. The supernatant was transferred to a new 96-well plate and hemolysis was monitored by measuring the absorbance at 450 nm (OD450). Hemolysis levels were calculated as percentage. % hemolysis = 100 × (As−A0)/(At−A0), where As, A0, and At are the absorbance of the hRBCs suspension in PBS with antimicrobial agents (As), without antimicrobial agents (A0), and with 1% Triton X-100 (At). […] For the TI calculation (TI = MHC/GM), other factors as the GM (geometric mean of MIC value of all the Gram-negative strains tested) were calculated.

E. faecium LMG16003 = assay type: cell-based
Method: as §1

E. faecalis V583 = assay type: cell-based
Method: as §1

S. aureus LMG8224 = assay type: cell-based
Method: as §1

HEK-293 cells = experiment: Cytotoxicity, cell viability (CellTiter-Glo); conditions: all the concentrations tested (up to 88 µM)
Method: 96-well plates were seeded with HEK-293 cells at a concentration of 3*10^5 cells/well in 100 µL of DMEM growth medium supplemented with 1% NEAA and 10% FBS. Border wells were filled with 100 µL of sterile PBS. […] ATP levels were measured by adding 50 µL of CellTiter-Glo reagent (Promega, Madison, US) to each well, and luminescence was measured with a SpectraMax i3 microplate reader after 5 minutes of incubation. The potential effect of the tested compounds on cell viability was determined by comparing the signal obtained in the presence of different concentrations of the compounds with those obtained in the control wells. All these tests were performed in triplicate.

[13] = tested on: all the Gram-negative strains tested; experiment: organism not typed
Method: as §1, §2
as §5, with “The cells were incubated at 37 °C for 1 h and centrifuged at 2000 rpm for 5 min.” left out

[14] = tested on: human red blood cells (hRBCs); conditions: cited from earlier work
[15] = compound alone, CLSI broth microdilution, CAMHB, 5*10^5 CFU/mL, 37 °C, 16–20 h, OD600, triplicate

| Molecule | MIC (K. pneumoniae LMG 20218 [1]; LMG 20218) [µM] | MIC (P. aeruginosa LMG 6395 [2]; LMG 6395) [µM] | MIC (E. aerogenes LMG 02094 [3]; LMG 02094) [µM] | MIC (A. baumannii LMG 01041 [4]; LMG 01041) [µM] | MIC (E. coli LMG 15862 [5]; LMG 15862) [µM] | other results |
| --- | --- | --- | --- | --- | --- | --- |
| CC[C@@H](C)[C@@H](NC(=O)[C@@H](CCCCN)NC(=O)[C@@H](CCCCN)NC(=O)[C@@H](Cc1c[nH]c2ccccc12)NC(=O)[C@@H](CC(C)C)NC(=O)[C@H](N)CCCNC(=N)N)C(=O)N[C@H](CCCNC(=N)N)C(=O)N[C@H](CCC(N)=O)C(=O)N[C@@H](C(=O)N[C@@H](C(=O)N[C@H](CCCNC(=N)N)C(N)=O)[C@H](C)CC)C(C)C [D-11R] (H-[dR][dL][dW][dK][dK][dI][dR][dQ][dV][dI][dR]-NH2) | 32 (≈ 47.8 µg/mL) | 16 (≈ 23.9 µg/mL) | 32 (≈ 47.8 µg/mL) | 64 (≈ 95.7 µg/mL) | 8 (≈ 12 µg/mL) | FICI, peptide + nisin (K. pneumoniae LMG 20218 [6]): 0.125; FICI, peptide + nisin (P. aeruginosa LMG 6395 [7]): 0.188; FICI, peptide + nisin (E. aerogenes LMG 02094 [8]): 0.188; FICI, peptide + nisin (A. baumannii LMG 01041 [9]): 0.188; FICI, peptide + nisin (E. coli LMG 15862 [10]): 0.375; stability in plasma [11]: completely resistant to degradation in plasma |
| CC[C@@H](C)[C@@H](NC(=O)[C@H](N)CCCNC(=N)N)C(=O)N[C@@H](C(=O)N[C@H](CCC(N)=O)C(=O)N[C@H](CCCNC(=N)N)C(=O)N[C@@H](C(=O)N[C@H](CCCCN)C(=O)N[C@H](CCCCN)C(=O)N[C@H](Cc1c[nH]c2ccccc12)C(=O)N[C@H](CC(C)C)C(=O)N[C@H](CCCNC(=N)N)C(N)=O)[C@H](C)CC)C(C)C [D-11] (H-[dR][dI][dV][dQ][dR][dI][dK][dK][dW][dL][dR]-NH2) | 32 (≈ 47.8 µg/mL) | 16 (≈ 23.9 µg/mL) | 32 (≈ 47.8 µg/mL) | 8 (≈ 12 µg/mL) | 4 (≈ 5.98 µg/mL) | MIC (S. pneumoniae R6): > 85 µM; TI, therapeutic index (MHC/GM) [12]: 39.03; MHC, minimal hemolytic concentration that caused 10% hemolysis of hRBCs ([12]; red cells of human): 1200 µM; MHA, mean hemolytic activity ([12]; red cells of human, 50 µM): 0%; MHA, mean hemolytic activity ([12]; red cells of human, 100 µM): 0%; MHA, mean hemolytic activity ([12]; red cells of human, 200 µM): 0%; MHA, mean hemolytic activity ([12]; red cells of human, 400 µM): 0%; MHA, mean hemolytic activity ([12]; red cells of human, 600 µM): 0%; MIC (E. faecium LMG16003): 10.6 µM (≈ 15.8 µg/mL); MIC (E. faecalis V583): 64 µM (≈ 95.7 µg/mL); MIC (S. aureus LMG8224): > 85 µM; FICI, peptide + nisin (K. pneumoniae LMG 20218 [6]): 0.078; FICI, peptide + nisin (P. aeruginosa LMG 6395 [7]): 0.156; FICI, peptide + nisin (E. aerogenes LMG 02094 [8]): 0.188; FICI, peptide + nisin (A. baumannii LMG 01041 [9]): 0.094; FICI, peptide + nisin (E. coli LMG 15862 [10]): 0.375; effect on viability of HEK-293 cells (HEK-293 cells): did not affect the viability; stability in plasma [11]: completely resistant to degradation in plasma; GM, MIC geometric mean against all the Gram-negative strains tested [13]: 30.75 µM |
| AIVQRIKKWLR-NH2 [L-13] | 24 | 16 | 128 | 128 | 12 | – |
| GIGKHVGKALKGLKGLLKGLGEC [L-7] | 12 | 13 | 8 | 2 | 6 | – |
| GNNRPVYIPQPRPPHPRL [L-1] | 5 | >64 | 8 | >64 | 0.5 | – |
| KIVQRIKKWLR-NH2 [L-12] | 32 | 16 | 256 | 128 | 16 | – |
| KRIVQRIKKWLR-NH2 [L-8] | 64 | 16 | 32 | 16 | 4 | hemolytic activity [14]: very low hemolytic activity |
| RIKRRIKKWLR-NH2 [L-15] | >256 | 32 | >256 | >256 | 24 | – |
| RIRKRIKKWLR-NH2 [L-14] | >256 | 16 | >256 | >256 | 16 | – |
| RIVQRIKKWL-NH2 [L-10] | 64 | 16 | >256 | 128 | 32 | – |
| RIVQRIKKWLR-NH2 [L-11] | 32 | 16 | 128 | >64 | 12 | FICI, peptide + nisin (A. baumannii LMG 01041 [9]): 0.063; stability in plasma [11]: almost completely degraded within the first 3 h |
| RIVQRIKKWR-NH2 [L-9] | >256 | >256 | >256 | >256 | 256 | – |
| RIWVIWRR-NH2 [L-5] | 6 | 3 | 5 | 2 | 3 | – |
| RLLFRKIRRLKR [L-4] | >256 | >128 | >256 | >128 | 64 | – |
| RRLFRRILRWL-NH2 [L-6] | – | – | – | – | – | MIC (K. pneumoniae LMG 20218 [1]; [15]): 4 µM; MIC (P. aeruginosa LMG 6395 [2]; [15]): 3 µM; MIC (E. aerogenes LMG 02094 [3]; [15]): 8 µM; MIC (A. baumannii LMG 01041 [4]; [15]): 2 µM; MIC (E. coli LMG 15862 [5]; [15]): 2 µM; hemolytic activity in previous studies [14]: rather high hemolytic activity |
| VDKGSYLPRPTPPRPIYNRN-NH2 [L-3] | 16 | 32 | >32 | 8 | 3 | – |
| VDKPPYLPRPRPPRRIYNR [L-2] | 8 | >64 | >64 | 16 | 4 | – |
